Laboratory results reported in patent publication US7138361B2, “Herbicidal heterocycles” (E. I. du Pont de Nemours and Company, priority 2000, dated 2006).

Tests used:
Assay in all cases: Test C postemergence
Type in all cases: in vivo
[1] = tested on: velvetleaf (Abutilon theophrasti)
Outline: (§1)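 Compounds in non-phytotoxic solvent with surfactant applied preemergence to planted seeds and postemergence to plants at 1- to 4-leaf stage (2–18 cm). Kept in greenhouse 12–14 days, then visually rated against controls on a 0 (no effect) to 100 (complete control) scale.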

[2] = tested on: cocklebur (Xanthium strumarium)
Outline: as §1

[3] = tested on: chickweed (Stellaria media)
Outline: as §1

[4] = tested on: yellow nutsedge (Cyperus esculentus)
Outline: as §1

[5] = tested on: goosegrass (Eleusine indica)
Outline: as §1

[6] = tested on: woolly cupgrass (Eriochloa villosa)
Outline: as §1

[7] = tested on: johnsongrass (Sorghum halepense)
Outline: as §1

[8] = tested on: crabgrass (Digitaria sanguinalis)
Outline: as §1

kochia (Kochia scoparia) = tested on: kochia (Kochia scoparia)
Outline: as §1

soybean (Glycine max) = tested on: soybean (Glycine max)
Outline: as §1

[9] = Rate 125 g/ha, scale 0 to 100, 0 no effect, 100 complete control
[10] = Rate 250 g/ha, scale 0 to 100 (0 no effect, 100 complete control)
[11] = Rate 500 g/ha, scale 0 to 100 (0 no effect, 100 complete control)

| Compound | Plant response rating, Velvetleaf ([1]; Rate 62 g/ha, scale 0 to 100) | Plant response rating, Velvetleaf [1, 9] | Plant response rating, Velvetleaf [1, 10] | Plant response rating, Velvetleaf [1, 11] | Plant response rating, Cocklebur ([2]; Rate 62 g/ha, scale 0 to 100) | Plant response rating, Cocklebur [2, 10] | Plant response rating, Cocklebur [2, 11] | Plant response rating, Chickweed ([3]; Rate 62 g/ha, scale 0 to 100) | Plant response rating, Chickweed [3, 9] | Plant response rating, Chickweed [3, 10] | Plant response rating, Chickweed [3, 11] | Plant response rating, Nutsedge ([4]; Rate 62 g/ha, scale 0 to 100) | Plant response rating, Nutsedge [4, 10] | Plant response rating, Nutsedge [4, 11] | Plant response rating, Goosegrass [5, 10] | Plant response rating, Cupgrass, Woolly [6, 10] | Plant response rating, Johnsongrass [7, 10] | Plant response rating, Crabgrass [8, 10] | Plant response rating, Kochia (kochia (Kochia scoparia); [10]) | Plant response rating, Soybean (soybean (Glycine max); [10]) | also measured |
| --- | --- | --- | --- | --- | --- | --- | --- | --- | --- | --- | --- | --- | --- | --- | --- | --- | --- | --- | --- | --- | --- |
| CCC(C)c1ccn(C2SCN(c3cccc(OC(F)(F)F)c3)C2=O)n1 (stereo not drawn) [Compound 40] | 0 | 0 | 0 | 20 | 0 | 0 | 0 | 0 | 0 | 0 | 0 | 0 | 0 | 20 | 0 | 0 | 20 | 0 | 60 | 0 | Plant response rating, Cocklebur [2, 9]: 0; Plant response rating, Nutsedge [4, 9]: 0; Plant response rating, Goosegrass ([5]; Rate 62 g/ha, scale 0 to 100): 0; Plant response rating, Goosegrass [5, 9]: 0; Plant response rating, Goosegrass [5, 11]: 20; Plant response rating, Cupgrass, Woolly ([6]; Rate 62 g/ha, scale 0 to 100): 0; Plant response rating, Cupgrass, Woolly [6, 9]: 0; Plant response rating, Cupgrass, Woolly [6, 11]: 0; Plant response rating, Johnsongrass ([7]; Rate 62 g/ha, scale 0 to 100): 0; Plant response rating, Johnsongrass [7, 9]: 0; Plant response rating, Johnsongrass [7, 11]: 30; Plant response rating, Crabgrass ([8]; Rate 62 g/ha, scale 0 to 100): 0; Plant response rating, Crabgrass [8, 9]: 0; Plant response rating, Crabgrass [8, 11]: 0; Plant response rating, Kochia (kochia (Kochia scoparia); Rate 62 g/ha, scale 0 to 100): 20; Plant response rating, Kochia (kochia (Kochia scoparia); [9]): 50; Plant response rating, Kochia (kochia (Kochia scoparia); [11]): 70; Plant response rating, Soybean (soybean (Glycine max); Rate 62 g/ha, scale 0 to 100): 0; Plant response rating, Soybean (soybean (Glycine max); [9]): 0; Plant response rating, Soybean (soybean (Glycine max); [11]): 0 |
| COc1cc(N2CCC(n3ccc(C(C)C)n3)C2=O)ccc1C (stereo not drawn) [Compound 85] | 40 | 40 | 40 | 40 | 40 | 90 | 90 | 20 | 70 | 100 | 100 | 10 | – | 90 | 20 | 60 | 40 | 40 | 80 | 70 | Plant response rating, Cocklebur [2, 9]: 70; Plant response rating, Goosegrass ([5]; Rate 62 g/ha, scale 0 to 100): 10; Plant response rating, Goosegrass [5, 9]: 10; Plant response rating, Goosegrass [5, 11]: 60; Plant response rating, Cupgrass, Woolly ([6]; Rate 62 g/ha, scale 0 to 100): 30; Plant response rating, Cupgrass, Woolly [6, 9]: 30; Plant response rating, Cupgrass, Woolly [6, 11]: 70; Plant response rating, Johnsongrass ([7]; Rate 62 g/ha, scale 0 to 100): 30; Plant response rating, Johnsongrass [7, 9]: 40; Plant response rating, Johnsongrass [7, 11]: 70; Plant response rating, Crabgrass ([8]; Rate 62 g/ha, scale 0 to 100): 30; Plant response rating, Crabgrass [8, 9]: 30; Plant response rating, Crabgrass [8, 11]: 70; Plant response rating, Kochia (kochia (Kochia scoparia); Rate 62 g/ha, scale 0 to 100): 40; Plant response rating, Kochia (kochia (Kochia scoparia); [9]): 60; Plant response rating, Kochia (kochia (Kochia scoparia); [11]): 90; Plant response rating, Soybean (soybean (Glycine max); Rate 62 g/ha, scale 0 to 100): 60; Plant response rating, Soybean (soybean (Glycine max); [9]): 60; Plant response rating, Soybean (soybean (Glycine max); [11]): 70 |
| CCCC(C)c1ccn(C2OCN(c3cccc(OC(F)(F)F)c3)C2=O)n1 (stereo not drawn) [Compound 91] | 0 | 0 | 0 | 0 | 0 | 0 | 20 | 70 | 80 | 80 | 90 | 0 | 0 | 20 | 30 | 40 | 30 | 30 | 90 | 0 | Plant response rating, Cocklebur [2, 9]: 0; Plant response rating, Nutsedge [4, 9]: 0; Plant response rating, Goosegrass ([5]; Rate 62 g/ha, scale 0 to 100): 20; Plant response rating, Goosegrass [5, 9]: 20; Plant response rating, Goosegrass [5, 11]: 40; Plant response rating, Cupgrass, Woolly ([6]; Rate 62 g/ha, scale 0 to 100): 20; Plant response rating, Cupgrass, Woolly [6, 9]: 20; Plant response rating, Cupgrass, Woolly [6, 11]: 40; Plant response rating, Johnsongrass ([7]; Rate 62 g/ha, scale 0 to 100): 20; Plant response rating, Johnsongrass [7, 9]: 20; Plant response rating, Johnsongrass [7, 11]: 70; Plant response rating, Crabgrass ([8]; Rate 62 g/ha, scale 0 to 100): 20; Plant response rating, Crabgrass [8, 9]: 20; Plant response rating, Crabgrass [8, 11]: 60; Plant response rating, Kochia (kochia (Kochia scoparia); Rate 62 g/ha, scale 0 to 100): 70; Plant response rating, Kochia (kochia (Kochia scoparia); [9]): 70; Plant response rating, Kochia (kochia (Kochia scoparia); [11]): 90; Plant response rating, Soybean (soybean (Glycine max); Rate 62 g/ha, scale 0 to 100): 0; Plant response rating, Soybean (soybean (Glycine max); [9]): 0; Plant response rating, Soybean (soybean (Glycine max); [11]): 0 |
| CCC(C)c1ccn(C2SCN(c3cccc(C(F)(F)F)c3)C2=O)n1 (stereo not drawn) [Compound 20] | – | 30 | 30 | – | – | 60 | – | – | 50 | 70 | – | – | 0 | – | 40 | 0 | 80 | 0 | 70 | 20 | Plant response rating, Chickweed ([3]; Rate 62 g/ha, scale 0 to 100, 0 no effect, 100 complete control): 50; Plant response rating, Nutsedge [4, 9]: 0; Plant response rating, Goosegrass [5, 9]: 20; Plant response rating, Cupgrass, Woolly [6, 9]: 0; Plant response rating, Johnsongrass [7, 9]: 0; Plant response rating, Crabgrass [8, 9]: 0; Plant response rating, Kochia (kochia (Kochia scoparia); [9]): 70; Plant response rating, Soybean (soybean (Glycine max); [9]): 20 |
| CCCOc1cc(N2CCC(n3ccc(C(C)(C)C)n3)C2=O)ccc1C (stereo not drawn) [Compound 107] | 30 | – | 50 | 80 | 0 | 30 | 80 | 50 | 100 | 100 | 100 | 0 | 0 | 0 | 0 | 0 | 0 | 0 | 80 | 20 | Plant response rating, Velvetleaf ([1]; scale 0 to 100): 40; Plant response rating, Goosegrass ([5]; Rate 62 g/ha, scale 0 to 100): 0; Plant response rating, Goosegrass [5, 11]: 0; Plant response rating, Cupgrass, Woolly ([6]; Rate 62 g/ha, scale 0 to 100): 0; Plant response rating, Cupgrass, Woolly [6, 11]: 0; Plant response rating, Johnsongrass ([7]; Rate 62 g/ha, scale 0 to 100): 0; Plant response rating, Johnsongrass [7, 11]: 0; Plant response rating, Johnsongrass ([7]; rate not given, scale 0 to 100): 0; Plant response rating, Crabgrass ([8]; Rate 62 g/ha, scale 0 to 100): 0; Plant response rating, Crabgrass [8, 11]: 20; Plant response rating, Kochia (kochia (Kochia scoparia); Rate 62 g/ha, scale 0 to 100): 70; Plant response rating, Kochia (kochia (Kochia scoparia); [11]): 85; Plant response rating, Soybean (soybean (Glycine max); Rate 62 g/ha, scale 0 to 100): 0; Plant response rating, Soybean (soybean (Glycine max); [11]): 25 |
